Where a name gives a salt, the structure may show the parent alone.
Key:
Assay type in all cases: in vivo
[1] = system: corn (DKC 58-89, DKC 52-61, DKC 65-81); assay: V5 corn yield, choline chloride, calcium chloride and PLURONIC F-68; details: for Avg. Yield (Bu/Ac) Trial 1 / Avg. Yield (Bu/Ac) Trial 2: foliar at V5 corn; for Avg. Yield (Bu/Ac) Trial 1: three hybrids (* two hybrids only), trial 1, one location; for Avg. Yield (Bu/Ac) Trial 2: three hybrids; for Avg. Δ in Yield (Bu/Ac): vs base seed treatment control, average of trials 1 and 2; for yield increase compared to base seed treatment control plants: foliar at V5
Experimental: In a separate experiment, large acre field trials were conducted using one and two location trials in the US Midwest (IL) planted with three different corn hybrids (DEKALB: DKC 58-89; DKC 52-61; DKC 65-81). Seed from each of the corn hybrids was coated with a seed treatment of EVERGOL® fungicide combined with PONCHO®/VOTIVO® 500. Foliar treatments comprising a non-ionic polyoxyethylene-polyoxypropylene block copolymer surfactant (PLURONIC F-68, an anti-respirant), a quaternary ammonium salt (choline chloride) and/or a di-hydrated salt (calcium chloride) were applied to corn plants at the V5 stage of development. The foliar treatments were applied using the final concentrations and application use rates as described in Table 42. Choline chloride was selected for its osmolyte-like properties. Choline chloride is a precursor of acetylcholine and is involved in the regulation of water resorption in plants. Choline chloride was tested as a foliar application treatment individually and in combination an anti-respirant (PLURONIC F 68 surfactant). Average yield in Bu/Ac was reported for two trials. Trial 1 was conducted at one location and trial 2 was conducted at two locations in the US Midwest (IL). Yield (Bu/Ac) is reported as the average yield across location(s) and as the average for all three hybrids except where indicated in Table 42 and as the average change in yield (Bu/Ac) compared to the yield from the seed treatment control plants. The Base Seed Treatment control plants received only the EVERGOL® fungicide+PONCHO®/VOTIVO® 500 seed treatment and not any foliar treatments.

[2] = system: corn (Beck's hybrid 5828 YH); assay: Corn growth rate under droughted conditions, alternative osmoprotectants; details: two weeks un-watered; Anti-Respirant Control A 29.0%
From the text: Stachydrine was selected as an osmoprotectant that acts as a negative control due to its functional role in the induction of nodulation (Phillips, D. A., Joseph, C. M., Maxwell, C. A., “Trigonelle and stachydrine released from alfalfa seeds activate NodD2 protein in Rhizobium meliloti” (1992) Plant Physiology 99: 1526-1531). Stachydrine acts through a different mode of action as compared to the betaine-HCl osmoprotectant. Plant growth rates under droughted conditions were compared in corn treated with foliar applications comprising betaine-HCl, strachydrine or myo-inositol (see Table 37). Corn (Beck's hybrid 5828 YH) plants were planted in an environmentally controlled growth facility and grown using the conditions described in the first paragraph of this example. At 1.5 weeks, the plants were provided with another 50 mL of water per pot and plant height was measured for each plant. Plants were then segregated to prevent any cross contamination between the foliar treatments. […] Relative percent growth rate under droughted conditions was calculated for each plant in each treatment replicate using the percent (%) growth rate equation (as provided above in this Example). […]

soybean (Asgrow AG4034) = assay: R2 soybean yield, trehalose, potassium acetate and SILWET L-77; details: for Avg. Yield (Bu/Ac): foliar at R2 soybean AG4034, three locations; for Avg. Δ in Yield (Bu/Ac): vs base seed treatment control
From the text: In another experiment, large acre yield replicated trials of soybean (variety: Asgrow AG4034) were planted from seed treated with a base seed treatment package containing […]® fungicide and PONCHO®/VOTIVO® 500 in three locations in the US Midwest (IL). […] Trehalose is a non-reducing carbohydrate resistant to acid hydrolysis and stable in solution under high temperatures and acidic conditions. Trehalose was applied separately and in combination with a non-blended organosilicone surfactant ([…]-77) as a foliar spray application to soybean plants. Final concentrations at application were as follows: […]

[3] = system: corn (Beck's hybrid 5828 YH); assay: Soil drench of corn seedlings under drought, growth during V2-V3 transition; details: for % Δ in Plant Height Compared to Control: 11 DAP to 14 DAP, vs water-only control; for change in plant height during V2 to V3 transition compared to water-only control: soil drench at planting and day 3, 11 to 14 days after planting; for Plant Growth during the transition of V2-V3 stage (11 DAP to 14 DAP): soil drench, each component 438.5 mL/hectare, droughted conditions
From the text: The anti-respirant also functioned as an infiltration surfactant (above-soil surfactant or penetrant) and the anti-desiccant functioned as a humectant. […] A combined treatment with betaine-HCl (osmoprotectant), an infiltration surfactant (anti-respirant) and a humectant (anti-desiccant) was also compared with other drench treatments and a water-only control. Glycerol, a polyol compound that has three hydroxyl groups that are responsible for its solubility in water and its hydroscopic nature, was selected as a viscous humectant to combine with the betaine-HCl osmoprotectant and the infiltration surfactant. This triple treatment combination was selected based on its mode of action properties in soil drench applications that promote the retention and management of moisture by attracting moisture and condensing it for contact to the germinating seed and/or growing plant. The treatment combination was provided as a soil drench at the time of planting and again at emergence to promote rapid growth at the early V stages of development, enhance early vigor, provide for a robust stand establishment, and protect against the effects of drought during early seedling establishment. The betaine-HCl osmoprotectant was provided at a final application concentration of 83.49 mM. The infiltration surfactant was diluted in water at the recommended application use rate using a ratio of 1:1600 (surfactant to water) (52.9 μM). The humectant was provided at a final application treatment of 1% diluted in water (136.8 mM). The individual and combined treatments were provided using the application use rates (Fl. oz/Ac) as specified in Tables 54 and 55. […] In Table 55, the application use rates for all three components were the same. […] Seeds were planted at a depth of 2.54 cm, with two seeds per pot. After planting, seeds were supplied with 50 mL of the each of the treatments (as described in Tables 54 and 55) at room temperature and added to the soil in each pot as a soil drench provided at an equivalent application use rate as specified. […] After application of the second drench, the plants were left un-watered to induce and simulate droughted conditions that may occur during early seedling establishment. […] At 11 days after planting, plant height was determined for each plant in the various treatments. Corn plants provided with treatments as described in Table 55 received an additional 50 mL of water at 11 days after planting.

O.O.[Ca+2].[Cl-].[Cl-] [Calcium Chloride (dihydrate)]
Avg. Yield (Bu/Ac) Trial 1 [1]: 201.4 Bu/Ac
Avg. Yield (Bu/Ac) Trial 2 [1]: 169.6 Bu/Ac
Avg. Δ in Yield (Bu/Ac) [1]: +11.8 Bu/Ac

O[C@H]1[C@H](O)[C@@H](O)[C@H](O)[C@@H](O)[C@H]1O [Myo-inositol, myo-inositol]
Relative Growth Rate (%) under Droughted Conditions [2]: 31.1%

CC(=O)[O-].[K+] [Potassium Acetate]
Avg. Yield (Bu/Ac) (soybean (Asgrow AG4034)): 67.2 Bu/Ac
Avg. Δ in Yield (Bu/Ac) (soybean (Asgrow AG4034); three locations): +0.35 Bu/Ac

[Ca+2].[Cl-].[Cl-] [calcium chloride]
yield increase compared to base seed treatment control plants [1]: +11.8 Bu/Ac

C[N+](C)(C)CCO.[Cl-] [choline chloride]
yield increase compared to base seed treatment control plants [1]: +8.5 Bu/Ac
Avg. Yield (Bu/Ac) Trial 1 [1]: 207.3* Bu/Ac
Avg. Yield (Bu/Ac) Trial 2 [1]: 157.2 Bu/Ac
Avg. Δ in Yield (Bu/Ac) [1]: +8.5 Bu/Ac

OCC(O)CO [humectant-only control, glycerol]
% Δ in Plant Height Compared to Control [3]: +3%
change in plant height during V2 to V3 transition compared to water-only control [3]: +3%
Plant Growth during the transition of V2-V3 stage (11 DAP to 14 DAP) [3]: 2.98 cm

C[N+](C)(C)CC(=O)O [osmoprotectant-only control, betaine-HCl]
% Δ in Plant Height Compared to Control [3]: +8%
change in plant height during V2 to V3 transition compared to water-only control [3]: +8%
Plant Growth during the transition of V2-V3 stage (11 DAP to 14 DAP) [3]: 3.11 cm

OC[C@H]1O[C@H](O[C@H]2O[C@H](CO)[C@@H](O)[C@H](O)[C@H]2O)[C@H](O)[C@@H](O)[C@@H]1O [trehalose]
average change in soybean yield compared to seed treatment-only control (soybean (Asgrow AG4034); R2, trehalose 6.4 Fl. oz/Ac, SILWET L-77 3.2 Fl. oz/Ac, three locations): +1.49 Bu/Ac
Avg. Yield (Bu/Ac) (soybean (Asgrow AG4034)): 68.3 Bu/Ac
Avg. Δ in Yield (Bu/Ac) (soybean (Asgrow AG4034); three locations): +1.49 Bu/Ac

Reference: patent US20220338470A1, “AGRICULTURAL COMPOSITIONS FOR IMPROVED CROP PRODUCTIVITY AND ENHANCED PHENOTYPES” (Spogen Biotech Inc., priority 2018, published 2022)
